Reference: patent US12102648B2, “Orally-bioavailable nucleoside analogs” (priority 2021, dated 2024)
Read-outs that look alike come from different tables or passages of the source.

Experiment: in vitro
Format: in vitro ADME
Conditions: human
Description: The bidirectional permeability of compounds across the Caco-2 cell monolayer was assessed. The Caco-2 model is a widely used in vitro model for small intestinal absorption and potential for efflux.
Cell culture. Caco-2 cells were grown in DMEM supplemented with 10% fetal bovine serum (FBS), 1% Penicillin-Streptomycin and 1% MEM NEAA. The cells were incubated at 37° C., 5% CO2/95% air and saturated humidity. After reaching 80-90% confluency, the cells were gently detached with trypsin. Cells at passage 39 were seeded on the 24-well BD insert system at the density of 8×10^4 cells/cm^2 and cultured for 19 days with medium changed every 2-3 days. Measure the transepithelial electrical resistance (TEER) value of each well. The wells can be used only when their TEER values are greater than 600 Ohms/cm^2.
Transport assay. After removing the cell culture medium from the 24-well insert plate, the cells were rinsed with warm transport buffer. Appropriate dosing and receiving solutions were applied to the donor and receiver chambers to initiate the transport assay in apical to basolateral (A to B) or basolateral to apical (B to A) directions ([…] for apical and basolateral wells, respectively). Duplicate wells in each direction were used for the test compound and control compound. The plate was incubated in CO2 incubator at 37° C., with 5% CO2/95% air and saturated humidity without shaking. The sample after 10-minute incubation was used as the T0 sample, and the sample after 90-minute incubation was used as the T90 sample. To and T90 samples were collected from the donor and receiver side of each well at the designed timepoint, mixed with the transport buffer and acetonitrile/MeOH (1:1, v/v) and the internal standard for LC/MS/MS analysis. All samples were vortexed and centrifuged at 4000 rpm at 4° C. for 15 minutes, diluted with pure water and stored at 4° C. before bioanalysis by LC/MS/MS.
Sample analysis. The concentrations of test compounds and control compounds in Caco-2 cells were quantitatively determined by LC/MS/MS method after protein precipitation.
Calculations. The apparent permeability (Papp, cm/s), efflux ratio (ER) and recovery parameters were calculated for Caco-2 drug transport assay using the following equations:
[formula] [formula] where VR is the solution volume in the receiver chamber (0.4 mL on the apical side, 1.2 mL on the basolateral side); Area is the surface area for the insert membrane, i.e., 0.3 cm^2 for the area of the monolayer; Time is incubation time, expressed in seconds, i.e., 5400 s (90 min) for the current experiment; Co is the initial concentration of test compound or peak area ratio of control compounds in the donor chamber (μM); VD is the volume in the donor chambers (0.4 mL on the apical side, 1.2 mL on the basolateral side); CD and CR are the final concentrations of test compounds or peak area ratio of control compounds in donor and receiver chambers, respectively.
Compounds with Papp<1.0 are classified as low permeability, Papp between 1-10 are classified as medium permeability, and Papp≥10 are classified as high permeability. An efflux ratio (ER)>2 indicates the compounds are potential substrates for intestinal cell efflux transporters.

[1] = Caco-2 monolayer, apical to basolateral, 90-minute incubation, read-out: Papp, A-B
[2] = Caco-2 monolayer, basolateral to apical, 90-minute incubation, read-out: Papp, B-A
[3] = Caco-2 monolayer, ER>2 indicates potential efflux transporter substrate, read-out: ER (efflux ratio)

Compound | Papp A→B at 90 min [1] | Papp B→A at 90 min [2] | efflux ratio at 90 min [3] | Papp A→B at 90 min (Caco-2) | Papp B→A at 90 min (Caco-2) | efflux ratio at 90 min (Caco-2)
CCCCCOC(=O)Nc1ncnn2c([C@]3(C#N)O[C@H](COC(=O)Cc4ccccc4)[C@@H](O)[C@H]3O)ccc12 [Compound 89, ((2R,3S,4R,5R)-5-cyano-3,4-dihydroxy-5-(4-(((pentyloxy)carbonyl)amino)pyrrolo[2,1-f][1,2,4]triazin-7-yl)tetrahydrofuran-2-yl)methyl 2-phenylacetate] | 2.1 ×10⁻⁶ cm/s | 6.6 ×10⁻⁶ cm/s | 3.2 |  |  | 
CCC(=O)OC[C@H]1O[C@@](C#N)(c2ccc3c(N)ncnn23)[C@H](O)[C@@H]1OC(=O)C(C)C [Compound 70, [(2R,3S,4R,5R)-5-{4-aminopyrrolo[2,1-f][1,2,4]triazin-7-yl}-5-cyano-4-hydroxy-3-[(2-methylpropanoyl)oxy]oxolan-2-yl]methyl propanoate] |  |  |  | 1.8 ×10⁻⁶ cm/s | 1.6 ×10⁻⁶ cm/s | 0.82
CCC(=O)O[C@H]1[C@@H](O)[C@](C#N)(c2ccc3c(NC(=O)OCOC(C)=O)ncnn23)O[C@@H]1COC(=O)[C@@H](N)C(C)C [Compound 364, ((2R,3S,4R,5R)-5-(4-(((acetoxymethoxy)carbonyl)amino)pyrrolo[2,1-f][1,2,4]triazin-7-yl)-5-cyano-4-hydroxy-3-(propionyloxy)tetrahydrofuran-2-yl)methyl L-valinate] |  |  |  | 1.8 ×10⁻⁶ cm/s | 2 ×10⁻⁶ cm/s | 1.1
C[C@H]1CC[C@H](CC(=O)OC[C@H]2O[C@@](C#N)(c3ccc4c(N)ncnn34)[C@H](O)[C@@H]2O)CC1 [Compound 278, ((2R,3S,4R,5R)-5-(4-aminopyrrolo[2,1-f][1,2,4]triazin-7-yl)-5-cyano-3,4-dihydroxytetrahydrofuran-2-yl)methyl 2-((1r,4R)-4-methylcyclohexyl)acetate] |  |  |  | 2.2 ×10⁻⁶ cm/s | 4.9 ×10⁻⁶ cm/s | 2.2
CC(=O)N[C@H](C(=O)OC[C@H]1O[C@@](C#N)(c2ccc3c(N)ncnn23)[C@H](O)[C@@H]1OC(=O)CC1CCCCC1)C(C)(C)C [Compound 413, ((2R,3S,4R,5R)-5-(4-aminopyrrolo[2,1-f][1,2,4]triazin-7-yl)-5-cyano-3-(2-cyclohexylacetoxy)-4-hydroxytetrahydrofuran-2-yl)methyl (S)-2-acetamido-3,3-dimethylbutanoate] |  |  |  | 4.3 ×10⁻⁶ cm/s | 13.8 ×10⁻⁶ cm/s | 3.2
CC(C)(C)[C@H](N)C(=O)OC[C@H]1O[C@@](C#N)(c2ccc3c(N)ncnn23)[C@H](O)[C@@H]1OC(=O)CC1CCCCC1 [Compound 371, ((2R,3S,4R,5R)-5-(4-aminopyrrolo[2,1-f][1,2,4]triazin-7-yl)-5-cyano-3-(2-cyclohexylacetoxy)-4-hydroxytetrahydrofuran-2-yl)methyl (S)-2-amino-3,3-dimethylbutanoate] |  |  |  | 15 ×10⁻⁶ cm/s | 21 ×10⁻⁶ cm/s | 1.3
N#C[C@@]1(c2ccc3c(N)ncnn23)O[C@H](COC(=O)CC2CCCC2)[C@@H](O)[C@H]1O [Compound 259, ((2R,3S,4R,5R)-5-(4-aminopyrrolo[2,1-f][1,2,4]triazin-7-yl)-5-cyano-3,4-dihydroxytetrahydrofuran-2-yl)methyl 2-cyclopentylacetate] |  |  |  | 2 ×10⁻⁶ cm/s | 0.6 ×10⁻⁶ cm/s | 0.3
CNc1nc(N)nc2c1ncn2[C@@H]1O[C@H](COC(=O)C(C)C)[C@@H](O)[C@@]1(C)F [Compound 3, ((2R,3R,4R,5R)-5-(2-amino-6-(methylamino)-9H-purin-9-yl)-4-fluoro-3-hydroxy-4-methyltetrahydrofuran-2-yl)methyl isobutyrate] |  |  |  | 1.8 ×10⁻⁶ cm/s | 3.5 ×10⁻⁶ cm/s | 2
CC(=O)OC[C@H]1O[C@@](C#N)(c2ccc3c(N)ncnn23)[C@H](O)[C@@H]1OC(=O)C(C)C [Compound 54, (2R,3S,4R,5R)-2-(acetoxymethyl)-5-(4-aminopyrrolo[2,1-f][1,2,4]triazin-7-yl)-5-cyano-4-hydroxytetrahydrofuran-3-yl isobutyrate] |  |  |  | 2.6 ×10⁻⁶ cm/s | 2.4 ×10⁻⁶ cm/s | 0.94
CC(=O)O[C@H]1[C@@H](O)[C@](C#N)(c2ccc3c(N)ncnn23)O[C@@H]1COC(=O)[C@@H](N)C(C)C [Compound 37, ((2R,3S,4R,5R)-3-acetoxy-5-(4-aminopyrrolo[2,1-f][1,2,4]triazin-7-yl)-5-cyano-4-hydroxytetrahydrofuran-2-yl)methyl L-valinate] |  |  |  | 0.37 ×10⁻⁶ cm/s | 0.12 ×10⁻⁶ cm/s | 0.33
CNc1nc(N)nc2c1ncn2[C@@H]1O[C@H](COC(=O)C(C)C)[C@@H](OC(=O)Cc2ccccc2)[C@@]1(C)F [Compound 211, ((2R,3R,4R,5R)-5-(2-amino-6-(methylamino)-9H-purin-9-yl)-4-fluoro-4-methyl-3-(2-phenylacetoxy)tetrahydrofuran-2-yl)methyl isobutyrate] | 6.2 ×10⁻⁶ cm/s | 4.8 ×10⁻⁶ cm/s | 0.8 |  |  | 
CC(C)[C@H](N)C(=O)Nc1ncnn2c([C@]3(C#N)O[C@H](COC(=O)Cc4ccccc4)[C@@H](O)[C@H]3O)ccc12 [Compound 113] | 0.01 ×10⁻⁶ cm/s | 4.8 ×10⁻⁶ cm/s | 320 |  |  | 
N#C[C@@]1(c2ccc3c(N)ncnn23)O[C@H](COC(=O)C2(c3ccccc3)CC2)[C@@H](O)[C@H]1O [Compound 289, ((2R,3S,4R,5R)-5-(4-aminopyrrolo[2,1-f][1,2,4]triazin-7-yl)-5-cyano-3,4-dihydroxytetrahydrofuran-2-yl)methyl 1-phenylcyclopropane-1-carboxylate] |  |  |  | 6.4 ×10⁻⁶ cm/s | 25 ×10⁻⁶ cm/s | 3.8
Cc1oc(=O)oc1COC(=O)Nc1ncnn2c([C@]3(C#N)O[C@H](COC(=O)Cc4ccccc4)[C@@H](OC(=O)[C@@H](N)C(C)C)[C@H]3O)ccc12 [Compound 383, (2R,3S,4R,5R)-5-cyano-4-hydroxy-5-(4-((((5-methyl-2-oxo-1,3-dioxol-4-yl)methoxy)carbonyl)amino)pyrrolo[2,1-f][1,2,4]triazin-7-yl)-2-((2-phenylacetoxy)methyl)tetrahydrofuran-3-yl L-valinate] | < 1 ×10⁻⁶ cm/s | < 1 ×10⁻⁶ cm/s |  |  |  | 
CC(C)CC(=O)OC[C@H]1O[C@@](C#N)(c2ccc3c(N)ncnn23)[C@H](O)[C@@H]1O [Compound 9, ((2R,3S,4R,5R)-5-(4-aminopyrrolo[2,1-f][1,2,4]triazin-7-yl)-5-cyano-3,4-dihydroxytetrahydrofuran-2-yl)methyl 3-methylbutanoate] |  |  |  | 3 ×10⁻⁶ cm/s | 4.7 ×10⁻⁶ cm/s | 1.6
Cc1oc(=O)oc1COC(=O)Nc1ncnn2c([C@]3(C#N)O[C@H](COC(=O)CC4CCCCC4)[C@@H](OC(=O)[C@@H](N)C(C)C)[C@H]3O)ccc12 [Compound 385, (2R,3S,4R,5R)-5-cyano-2-((2-cyclohexylacetoxy)methyl)-4-hydroxy-5-(4-((((5-methyl-2-oxo-1,3-dioxol-4-yl)methoxy)carbonyl)amino)pyrrolo[2,1-f][1,2,4]triazin-7-yl)tetrahydrofuran-3-yl L-valinate] |  |  |  | < 1 ×10⁻⁶ cm/s | < 1 ×10⁻⁶ cm/s | 
N#C[C@@]1(c2ccc3c(N)ncnn23)O[C@H](COC(=O)CC2CCC2)[C@@H](O)[C@H]1O [Compound 265, ((2R,3S,4R,5R)-5-(4-aminopyrrolo[2,1-f][1,2,4]triazin-7-yl)-5-cyano-3,4-dihydroxytetrahydrofuran-2-yl)methyl 2-cyclobutylacetate] |  |  |  | 0.29 ×10⁻⁶ cm/s | 0.36 ×10⁻⁶ cm/s | 1.2
CC(C)C(=O)OC[C@H]1O[C@@](C#N)(c2ccc3c(NC(=O)c4ccccc4)ncnn23)[C@H](O)[C@@H]1O [Compound 108, ((2R,3S,4R,5R)-5-(4-benzamidopyrrolo[2,1-f][1,2,4]triazin-7-yl)-5-cyano-3,4-dihydroxytetrahydrofuran-2-yl)methyl isobutyrate] |  |  |  | 1.5 ×10⁻⁶ cm/s | 2 ×10⁻⁶ cm/s | 1.4
